Legend:
[1] = system: green foxtail; experiment: Test E green foxtail; assay type: in vivo, Setaria viridis; details: Preemergence; for Green foxtail plant response rating (0 to 100 scale): Rate 250 g/ha
[2] = system: winter barley; experiment: Test E winter barley; assay type: in vivo, Hordeum vulgare; details: Preemergence; for Barley (winter) plant response rating (0 to 100 scale): Rate 250 g/ha
[3] = system: surinam grass; experiment: Test B pre/postemergence surinam grass; assay type: in vivo, Brachiaria decumbens
Procedure, shortened: (§1)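 Test chemicals in a non-phytotoxic solvent mixture with surfactant were sprayed preemergence onto planted seeds and postemergence onto plants 2 to 18 cm tall (1- to 4-leaf stage). After twelve to sixteen days in a greenhouse, injury was visually rated against untreated controls from 0 (no effect) to 10 (complete control).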

[4] = system: blackgrass; experiment: Test E blackgrass; assay type: in vivo, Alopecurus myosuroides; details: Preemergence; for Blackgrass plant response rating (0 to 100 scale): Rate 250 g/ha
[5] = system: blackgrass; experiment: Test B pre/postemergence blackgrass; assay type: in vivo, Alopecurus myosuroides
Procedure, shortened: as §1

[6] = system: wild oat; experiment: Test E wild oat; assay type: in vivo, Avena fatua; details: Preemergence; for Wild oat plant response rating (0 to 100 scale): Rate 250 g/ha
[7] = system: bedstraw; experiment: Test B pre/postemergence bedstraw; assay type: in vivo, Galium aparine
Procedure, shortened: as §1

[8] = system: smallflower flatsedge; experiment: Test B flood test smallflower flatsedge; assay type: in vivo, Cyperus difformis
Procedure, shortened: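 Flood test on plants grown to the 2-leaf stage; treated plants kept in greenhouse twelve to sixteen days, then visually rated against controls on a 0 (no effect) to 10 (complete control) scale.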

[9] = system: winter wheat; experiment: Test E winter wheat; assay type: in vivo, Triticum aestivum; details: Preemergence; for Wheat (winter) plant response rating (0 to 100 scale): Rate 250 g/ha
[10] = system: Italian ryegrass; experiment: Test E Italian ryegrass; assay type: in vivo, Lolium multiflorum; details: Preemergence; for I. Ryegrass plant response rating (0 to 100 scale): Rate 250 g/ha
[11] = system: winter wheat; experiment: Test E winter wheat; assay type: in vivo, Triticum aestivum; details: Postemergence; for Wheat (winter) plant response rating: Rate 250 g/ha
Procedure, shortened: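 Compound formulated with surfactant in a non-phytotoxic solvent (postemergence: young 1- to 4-leaf plants); held in greenhouse approx. 21–28 days; visual assessment against untreated plants.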

[12] = Rate 500 g/ha, 0 to 100 scale where 0 is no effect and 100 is complete control
[13] = Rate 1000 g/ha, 0 to 100 scale, 0 no effect, 100 complete control
[14] = Preemergence, Rate 62 g/ha, scale of 0 to 10 where 0 is no effect and 10 is complete control
[15] = Preemergence, Rate 250 g/ha, scale of 0 to 10 where 0 is no effect and 10 is complete control
[16] = Preemergence, Rate 500 g/ha, scale of 0 to 10 where 0 is no effect and 10 is complete control
[17] = Rate 62 g/ha, Postemergence, scale of 0 to 10 where 0 is no effect and 10 is complete control
[18] = Rate 125 g/ha, Postemergence, scale of 0 to 10 where 0 is no effect and 10 is complete control
[19] = Rate 125 g/ha, Preemergence, scale of 0 to 10 where 0 is no effect and 10 is complete control
[20] = Rate 250 g/ha, Postemergence, scale of 0 to 10 where 0 is no effect and 10 is complete control
[21] = Rate 500 g/ha, Postemergence, scale 0 to 10, 0 no effect, 10 complete control
[22] = 0 to 100 scale where 0 is no effect and 100 is complete control
[23] = Rate 62 g/ha, 0 to 100 scale, 0 no effect, 100 complete control
[24] = Rate 125 g/ha, 0 to 100 scale (0 no effect, 100 complete control)
[25] = Postemergence, Rate 125 g/ha, scale of 0 to 10 where 0 is no effect and 10 is complete control
[26] = Preemergence, Rate 62 g/ha, scale 0 to 10 (0 no effect, 10 complete control)
[27] = Preemergence, Rate 125 g/ha, 0 is no effect, 10 is complete control
[28] = Preemergence, Rate 250 g/ha, scale 0 to 10, 0 is no effect, 10 is complete control
[29] = Preemergence, Rate 500 g/ha, scale 0 to 10 (0 no effect, 10 complete control)
[30] = Rate 250 g/ha, Postemergence, scale 0 to 10, 0 is no effect, 10 is complete control

With `Cc1ccccc1-n1c(=O)on(C(=O)N(c2cccc(F)c2)C(C)C)c1=O` [Compound 269] the “Green foxtail plant response rating (0 to 100 scale)” value [1] was 60, the “Plant response rating, Green foxtail” value [1, 12] was 70 and the “Plant response rating, Green foxtail” value [1, 13] was 100. The “Barley (winter) plant response rating (0 to 100 scale)” value [2] was 30, the “Plant response rating, Barley (winter)” value [2, 12] was 50 and the “Plant response rating, Barley (winter)” value [2, 13] was 60. The “B. signalgrass plant response rating” value [3, 14] was 0, the “B. signalgrass plant response rating” value [3, 15] was 6 and the “Plant response rating, B. signalgrass” value [3, 16] was 7. For the same molecule, the “B. signalgrass plant response rating” value [3, 17] was 0, the “B. signalgrass plant response rating” value [3, 18] was 0 and the “B. signalgrass plant response rating” value [3, 19] was 6. The “Plant response rating, B. signalgrass” value [3, 20] was 0, the “B. signalgrass plant response rating” value [3, 21] was 0 and the “Blackgrass plant response rating (0 to 100 scale)” value [4] was 40. The “Plant response rating, Blackgrass” value [4, 12] was 30, the “Plant response rating, Blackgrass” value [4, 13] was 40 and the “Blackgrass plant response rating” value [5, 14] was 0. The “Blackgrass plant response rating” value [5, 15] was 3, the “Plant response rating, Blackgrass” value [5, 16] was 7 and the “Blackgrass plant response rating” value [5, 17] was 0. The “Blackgrass plant response rating” value [5, 18] was 0, the “Blackgrass plant response rating” value [5, 19] was 2 and the “Plant response rating, Blackgrass” value [5, 20] was 2. For the same molecule, the “Blackgrass plant response rating” value [5, 21] was 5, the “Wild oat plant response rating (0 to 100 scale)” value [6] was 70 and the “Plant response rating, Wild oat” value [6, 12] was 70. For the same molecule, the “Plant response rating, Wild oat” value [6, 13] was 70, the “Bedstraw plant response rating” value [7, 14] was 0 and the “Bedstraw plant response rating” value [7, 15] was 0. For the same molecule, the “Plant response rating, Bedstraw” value [7, 16] was 0, the “Bedstraw plant response rating” value [7, 18] was 4 and the “Bedstraw plant response rating” value [7, 19] was 0. The “Plant response rating, Bedstraw” value [7, 20] was 4, the “Bedstraw plant response rating” value [7, 21] was 7 and the “S. Flatsedge plant response rating” value ([8]; Rate 62 g/ha, headed Pre-emergence (flood test species), scale 0 to 10 (0 no effect, 10 complete control)) was 0. For the same molecule, the “S. Flatsedge plant response rating” value ([8]; Rate 125 g/ha, Pre-emergence, flood test species, scale 0 to 10 where 0 is no effect and 10 is complete control) was 0, the “S. Flatsedge plant response rating” value ([8]; Rate 250 g/ha, Pre-emergence, flood-test species, scale 0 to 10, 0 is no effect, 10 is complete control) was 0 and the “S. Flatsedge plant response rating” value ([8]; Rate 500 g/ha, Pre-emergence, flood test species, scale 0 to 10 (0 no effect, 10 complete control)) was 0. For the same molecule, the “Wheat (winter) plant response rating (0 to 100 scale)” value [9] was 60, the “Plant response rating, Wheat (winter)” value [9, 12] was 40 and the “Plant response rating, Wheat (winter)” value [9, 13] was 50. For the same molecule, the “I. Ryegrass plant response rating (0 to 100 scale)” value [10] was 50, the “Plant response rating, I. Ryegrass” value [10, 12] was 60 and the “Plant response rating, I. Ryegrass” value [10, 13] was 70. The “Plant response rating, Wheat (winter)” value ([11]; Rate 1000 g/ha, 0 to 100 scale where 0 is no effect and 100 is complete control) was 55, the “Wheat (winter) plant response rating” value [11, 22] was 50 and the “Plant response rating, Wheat (winter)” value ([11]; Rate 500 g/ha, 0 to 100 scale, 0 is no effect, 100 is complete control) was 40.

For `CC(C)N(C(=O)n1oc(=O)n(CCCl)c1=O)c1ccc(F)cc1` [Compound 148], the “Plant response rating, Green foxtail” value [1, 23] was 20, the “Plant response rating, Green foxtail” value [1, 24] was 30 and the “Green foxtail plant response rating (0 to 100 scale)” value [1] was 55. For the same molecule, the “Plant response rating, Barley (winter)” value [2, 23] was 10, the “Plant response rating, Barley (winter)” value [2, 24] was 10 and the “Barley (winter) plant response rating (0 to 100 scale)” value [2] was 10. The “B. signalgrass plant response rating” value [3, 25] was 3, the “B. signalgrass plant response rating” value [3, 26] was 0 and the “B. signalgrass plant response rating (0 to 10 scale)” value [3, 27] was 5. The “B. signalgrass plant response rating” value [3, 28] was 7, the “B. signalgrass plant response rating” value [3, 29] was 7 and the “B. signalgrass plant response rating” value [3, 17] was 0. For the same molecule, the “Plant response rating, B. signalgrass” value [3, 30] was 5, the “B. signalgrass plant response rating” value ([3]; Rate 500 g/ha, Postemergence, scale of 0 to 10 where 0 is no effect and 10 is complete control) was 7 and the “Plant response rating, Blackgrass” value [4, 23] was 20. The “Plant response rating, Blackgrass” value [4, 24] was 50, the “Blackgrass plant response rating (0 to 100 scale)” value [4] was 50 and the “Blackgrass plant response rating” value [5, 25] was 7. For the same molecule, the “Blackgrass plant response rating” value [5, 26] was 4, the “Blackgrass plant response rating (0 to 10 scale)” value [5, 27] was 4 and the “Blackgrass plant response rating” value [5, 28] was 7. The “Blackgrass plant response rating” value [5, 29] was 9, the “Blackgrass plant response rating” value [5, 17] was 5 and the “Plant response rating, Blackgrass” value [5, 30] was 7. The “Blackgrass plant response rating” value ([5]; Rate 500 g/ha, Postemergence, scale 0 to 10) was 7, the “Plant response rating, Wild oat” value [6, 23] was 10 and the “Plant response rating, Wild oat” value [6, 24] was 15. The “Wild oat plant response rating (0 to 100 scale)” value [6] was 40, the “Bedstraw plant response rating” value [7, 25] was 5 and the “Bedstraw plant response rating” value [7, 26] was 0. For the same molecule, the “Bedstraw plant response rating (0 to 10 scale)” value [7, 27] was 0, the “Bedstraw plant response rating” value [7, 28] was 0 and the “Bedstraw plant response rating” value [7, 29] was 2. For the same molecule, the “Bedstraw plant response rating” value [7, 17] was 2, the “Plant response rating, Bedstraw” value [7, 30] was 6 and the “Bedstraw plant response rating” value [7, 21] was 6. For the same molecule, the “S. Flatsedge plant response rating” value ([8]; Postemergence (flood test species), Rate 125 g/ha, scale of 0 to 10 where 0 is no effect and 10 is complete control) was 0, the “S. Flatsedge plant response rating” value ([8]; Rate 62 g/ha, Postemergence section, flood test species, scale of 0 to 10 where 0 is no effect and 10 is complete control) was 0 and the “Plant response rating, S. Flatsedge” value ([8]; Rate 250 g/ha, Postemergence (flood test), scale 0 to 10, 0 is no effect, 10 is complete control) was 0. The “S. Flatsedge plant response rating” value ([8]; Rate 500 g/ha, listed under Postemergence (flood test species), scale 0 to 10) was 2, the “Plant response rating, Wheat (winter)” value [9, 23] was 0 and the “Plant response rating, Wheat (winter)” value [9, 24] was 0. The “Wheat (winter) plant response rating (0 to 100 scale)” value [9] was 0, the “Plant response rating, I. Ryegrass” value [10, 23] was 20 and the “Plant response rating, I. Ryegrass” value [10, 24] was 20. The “I. Ryegrass plant response rating (0 to 100 scale)” value [10] was 30, the “Plant response rating, Wheat (winter)” value ([11]; Rate 62 g/ha, 0 to 100 scale) was 0 and the “Plant response rating, Wheat (winter)” value ([11]; Rate 125 g/ha, 0 to 100 scale) was 10. For the same molecule, the “Wheat (winter) plant response rating” value [11, 22] was 80.
